Source: ChEMBL document CHEMBL1201862, “PubChem BioAssay data set” (2004)
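Results reflect a 48-hour exposure of cells in 96-well plates to compound at five concentrations. Abbreviation: GI50, concentration required for 50% inhibition of growth.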 Active and inactive are the calls of the source. Rule as the data show it: active = GI50 up to about 1.1 µM and inactive = higher.

Experiments:
Assay in all cases: NCI-60 cell line screen, 48 h
SF-295 = tested on: SF-295
HL-60 = tested on: HL-60
RPMI-8226 = tested on: RPMI-8226
LXFL 529 = tested on: LXFL 529
SF-268 = tested on: SF-268
NCI-H226 = tested on: NCI-H226
SNB-75 = tested on: SNB-75
SK-MEL-28 = tested on: SK-MEL-28
NCI-H522 = tested on: NCI-H522
MOLT-4 = tested on: MOLT-4
SF-539 = tested on: SF-539
M19-MEL = tested on: M19-MEL
OVCAR-3 = tested on: OVCAR-3
SK-MEL-5 = tested on: SK-MEL-5
DMS-273 = tested on: DMS-273
SK-MEL-2 = tested on: SK-MEL-2
U-251 = tested on: U-251
HCT-116 = tested on: HCT-116
SN12C = tested on: SN12C
DLD-1 = tested on: DLD-1
786-0 = tested on: 786-0
KM-20L2 = tested on: KM-20L2
CCRF-CEM = tested on: CCRF-CEM
HCT-15 = tested on: HCT-15
OVCAR-8 = tested on: OVCAR-8
SR = tested on: SR
M14 = tested on: M14
Malme-3M = tested on: Malme-3M
OVCAR-5 = tested on: OVCAR-5
RXF 393 = tested on: RXF 393
HT-29 = tested on: HT-29
UACC-257 = tested on: UACC-257
HOP-18 = tested on: HOP-18
HOP-92 = tested on: HOP-92
LOX IMVI = tested on: LOX IMVI
OVCAR-4 = tested on: OVCAR-4
KM12 = tested on: KM12
SNB-78 = tested on: SNB-78
ACHN = tested on: ACHN
TK-10 = tested on: TK-10
A549 = tested on: A549
IGROV-1 = tested on: IGROV-1
HOP-62 = tested on: HOP-62
UACC-62 = tested on: UACC-62
K562 = tested on: K562
DMS-114 = tested on: DMS-114
NCI-H460 = tested on: NCI-H460
SW-620 = tested on: SW-620
NCI-H23 = tested on: NCI-H23
COLO 205 = tested on: COLO 205
UO-31 = tested on: UO-31
SK-OV-3 = tested on: SK-OV-3

Measured: GI50

CC(=O)Nc1ccc(-c2nnc(SCC(=O)Nc3ccccc3C)o2)cc1
80.2 µM: HCT-15
inactive: SF-295 89.7 µM | HL-60 57.9 µM | RPMI-8226 46.3 µM | LXFL 529 33.3 µM | SF-268 > 100 µM | NCI-H226 > 100 µM | SNB-75 > 100 µM | SK-MEL-28 > 100 µM | NCI-H522 58.3 µM | MOLT-4 51.9 µM | SF-539 > 100 µM | M19-MEL 70.1 µM | OVCAR-3 74.5 µM | SK-MEL-5 93.1 µM | DMS-273 35.4 µM | SK-MEL-2 > 100 µM | U-251 66.7 µM | HCT-116 15.6 µM | SN12C > 100 µM | DLD-1 49.8 µM | 786-0 > 100 µM | KM-20L2 69.3 µM | CCRF-CEM 61.7 µM | OVCAR-8 > 100 µM | SR 55.5 µM | M14 64.9 µM | Malme-3M > 100 µM | OVCAR-5 > 100 µM | RXF 393 65.3 µM | HT-29 38 µM | UACC-257 > 100 µM | HOP-18 > 100 µM | HOP-92 39.4 µM | LOX IMVI 63 µM | OVCAR-4 > 100 µM | KM12 44.7 µM | SNB-78 47 µM | ACHN > 100 µM | TK-10 > 100 µM | A549 > 100 µM | IGROV-1 67 µM | HOP-62 > 100 µM | UACC-62 > 100 µM | K562 82.6 µM | DMS-114 > 100 µM | NCI-H460 96.8 µM | SW-620 > 100 µM | NCI-H23 > 100 µM | COLO 205 > 100 µM | UO-31 52 µM | SK-OV-3 > 100 µM
